Assay results published in PubChem BioAssay AID1745844 (Carcinogenic Potency Database (CPDB), 2022).
“And” between values parts separate entries of the source, which are not always exact repeats. Identical values can stand only once. The source made the active and inactive calls. The rule behind the calls is not given here.

System: rodent lifetime carcinogenesis bioassay, tumor incidence TD50
Assay: carcinogenic potency in animals, long-term in vivo studies, CPDB compilation (AID 1745844)

In the case of C=C(C)C#N, the carcinogen call (mouse, strain B6C3F1, females, by gavage, site: any site (literature study), lesion: several types, types named in the paper, dosed 104 weeks, study length 104 weeks) is reported as “negative (inactive)”, the TD50 (mouse, strain B6C3F1, females, by gavage, site: lung, lesion: alveolar/bronchiolar adenoma + alveolar/bronchiolar carcinoma, dosed 104 weeks, study length 104 weeks) is reported as 178 mg/kg/day and the carcinogen call (mouse, strain B6C3F1, males, by gavage, site: any site (literature study), lesion: several types, types named in the paper, dosed 104 weeks, study length 104 weeks) is reported as “negative (inactive)”. For the same compound, the TD50 (mouse, strain B6C3F1, males, by gavage, site: lung, lesion: alveolar/bronchiolar adenoma + alveolar/bronchiolar carcinoma, dosed 104 weeks, study length 104 weeks) was 160 mg/kg/day, the TD50 (rat, strain Fischer 344, females, by gavage, site: any site (literature study), lesion: several types, types named in the paper, dosed 104 weeks, study length 104 weeks) was 323 mg/kg/day (inactive) and the TD50 (rat, strain Fischer 344, males, by gavage, site: subcutaneous tissue, lesion: fibrosarcoma + fibrous histiocytoma + sarcoma, dosed 104 weeks, study length 104 weeks) was 205 mg/kg/day (inactive).
Work on Nc1cc(Cl)c(-c2cc(Cl)c(N)cc2Cl)cc1Cl yielded a TD50 (mouse, strain dd, females, in feed, site: all sites, lesion: malignant lymphoma, dosed 104 weeks, study length 104 weeks) of 109 mg/kg/day, a TD50 (mouse, strain dd, females, in feed, site: any site (literature study), lesion: malignant tumor, dosed 104 weeks, study length 104 weeks) of 87.2 mg/kg/day and a TD50 (rat, strain Wistar, females, in feed, site: liver, lesion: hepatoma, dosed 104 weeks, study length 104 weeks) of 735 mg/kg/day. For the same compound, the TD50 (rat, strain Wistar, females, in feed, site: urinary bladder, lesion: transitional-cell carcinoma, dosed 104 weeks, study length 104 weeks) was 2310 mg/kg/day and the TD50 (rat, strain Wistar, males, in feed, site: urinary bladder, lesion: transitional-cell carcinoma, dosed 104 weeks, study length 104 weeks) was 561 mg/kg/day.
In the case of CC(C)(OCc1ccc(-c2ccc(Cl)cc2)cc1)C(=O)O, the carcinogen call (hamster, strain Syrian Golden, females, in feed, site: liver, lesion: one or several types, types not named, dosed 104 weeks, study length 104 weeks) is reported as “negative (inactive)”, the carcinogen call (hamster, strain Syrian Golden, females, in feed, site: lung, lesion: one or several types, types not named, dosed 104 weeks, study length 104 weeks) is reported as “negative (inactive)” and the carcinogen call (hamster, strain Syrian Golden, males, in feed, site: liver, lesion: one or several types, types not named, dosed 104 weeks, study length 104 weeks) is reported as “negative (inactive)”. For the same compound, the TD50 (hamster, strain Syrian Golden, males, in feed, site: lung, lesion: one or several types, types not named, dosed 104 weeks, study length 104 weeks) was 1510 mg/kg/day (inactive), the TD50 (mouse, strain C57BL/10J, females, in feed, site: liver, lesion: hepatocellular carcinoma, dosed 78 weeks, study length 78 weeks) was 870 mg/kg/day and the TD50 (mouse, strain C57BL/10J, females, in feed, site: lung, lesion: one or several types, types not named, dosed 78 weeks, study length 78 weeks) was 1010 mg/kg/day. For the same compound, the TD50 (mouse, strain C57BL/10J, males, in feed, site: liver, lesion: hepatocellular adenoma, dosed 78 weeks, study length 78 weeks) was 154 mg/kg/day, the TD50 (mouse, strain C57BL/10J, males, in feed, site: liver, lesion: hepatocellular carcinoma, dosed 78 weeks, study length 78 weeks) was 214 mg/kg/day and the TD50 (rat, strain Alpk:APfSD, males, in feed, site: liver, lesion: hepatocellular adenoma, dosed 104 weeks, study length 104 weeks) was 62.5 mg/kg/day.
With CN1CCCC1=O the TD50 (mouse, strain B6C3F1, females, in feed, site: any site (literature study), lesion: benign tumor, dosed 78 weeks, study length 78 weeks) was 3440 mg/kg/day, the TD50 (mouse, strain B6C3F1, females, in feed, site: any site (literature study), lesion: malignant tumor, dosed 78 weeks, study length 78 weeks) was 14900 mg/kg/day and the TD50 (mouse, strain B6C3F1, females, in feed, site: liver, lesion: hepatocellular adenoma, dosed 78 weeks, study length 78 weeks) was 3320 mg/kg/day. The TD50 (mouse, strain B6C3F1, females, in feed, site: liver, lesion: hepatocellular carcinoma, dosed 78 weeks, study length 78 weeks) was 7330 mg/kg/day, the TD50 (mouse, strain B6C3F1, males, in feed, site: any site (literature study), lesion: benign tumor, dosed 78 weeks, study length 78 weeks) was 1630 mg/kg/day and the TD50 (mouse, strain B6C3F1, males, in feed, site: any site (literature study), lesion: malignant tumor, dosed 78 weeks, study length 78 weeks) was 2270 mg/kg/day. It also gave a TD50 (mouse, strain B6C3F1, males, in feed, site: liver, lesion: hepatocellular adenoma, dosed 78 weeks, study length 78 weeks) of 1760 mg/kg/day, a TD50 (mouse, strain B6C3F1, males, in feed, site: liver, lesion: hepatocellular carcinoma, dosed 78 weeks, study length 78 weeks) of 1480 mg/kg/day and a TD50 (mouse, strain B6C3F1, males, in feed, site: lung, lesion: adenoma, dosed 78 weeks, study length 78 weeks) of 4080 mg/kg/day. For the same compound, the carcinogen call (rat, strain Charles River CD (Sprague-Dawley), females, in feed, site: any site (literature study), lesion: several types, types named in the paper, dosed 104 weeks, study length 104 weeks) was “negative (inactive)”, the carcinogen call (rat, strain Charles River CD (Sprague-Dawley), females, in feed, site: liver, lesion: several types, types named in the paper, dosed 104 weeks, study length 104 weeks) was “negative (inactive)” and the carcinogen call (rat, strain Charles River CD (Sprague-Dawley), females, inhaled, site: liver, lesion: one or several types, types not named, dosed 104 weeks, study length 104 weeks) was “negative (inactive)”. For the same compound, the TD50 (rat, strain Charles River CD (Sprague-Dawley), males, in feed, site: any site (literature study), lesion: several types, types named in the paper, dosed 104 weeks, study length 104 weeks) was 6060 mg/kg/day (inactive), the TD50 (rat, strain Charles River CD (Sprague-Dawley), males, in feed, site: liver, lesion: several types, types named in the paper, dosed 104 weeks, study length 104 weeks) was 58500 mg/kg/day (inactive) and the carcinogen call (rat, strain Charles River CD (Sprague-Dawley), males, inhaled, site: liver, lesion: one or several types, types not named, dosed 104 weeks, study length 104 weeks) was “negative (inactive)”.
NNc1ccccc1 gave a TD50 (mouse, strain Swiss albino, females, in drinking water, site: blood vessels, lesion: angioma, dosed 112 weeks, study length 112 weeks) of 147 mg/kg/day, a TD50 (mouse, strain Swiss albino, females, in drinking water, site: blood vessels, lesion: angiosarcoma, dosed 112 weeks, study length 112 weeks) of 165 mg/kg/day and a TD50 (mouse, strain Swiss albino, females, in drinking water, site: blood vessels, lesion: several types, types named in the paper, dosed 112 weeks, study length 112 weeks) of 72.1 mg/kg/day. The TD50 (mouse, strain Swiss albino, females, in drinking water, site: liver, lesion: angioma, dosed 112 weeks, study length 112 weeks) was 165 mg/kg/day, the TD50 (mouse, strain Swiss albino, females, in drinking water, site: liver, lesion: angiosarcoma, dosed 112 weeks, study length 112 weeks) was 165 mg/kg/day and the TD50 (mouse, strain Swiss albino, females, in drinking water, site: liver, lesion: several types, types named in the paper, dosed 112 weeks, study length 112 weeks) was 68.6 mg/kg/day. The carcinogen call (mouse, strain Swiss albino, females, in drinking water, site: lung, lesion: several types, types named in the paper, dosed 112 weeks, study length 112 weeks) was “negative (inactive)”, the TD50 (mouse, strain Swiss albino, males, in drinking water, site: blood vessels, lesion: several types, types named in the paper, dosed 112 weeks, study length 112 weeks) was 70.6 mg/kg/day and the TD50 (mouse, strain Swiss albino, males, in drinking water, site: liver, lesion: several types, types named in the paper, dosed 112 weeks, study length 112 weeks) was 83.9 mg/kg/day. The carcinogen call (mouse, strain Swiss albino, males, in drinking water, site: lung, lesion: several types, types named in the paper, dosed 112 weeks, study length 112 weeks) was “negative (inactive)” and the carcinogen call (mouse, strain Swiss, females, by gavage, site: lung, lesion: one or several types, types not named, dosed 39 weeks, study length 55 weeks) was “negative (inactive)”.
Work on CN(N=O)C(=O)Nc1nc2ccccc2s1 yielded a TD50 (rat, strain Wistar, both sexes, by gavage, site: forestomach, lesion: papilloma, dosed 51 weeks, study length 58 weeks) of 3.75 mg/kg/day, a TD50 (rat, strain Wistar, both sexes, by gavage, site: forestomach, lesion: several types, types named in the paper, dosed 51 weeks, study length 58 weeks) of 1.13 mg/kg/day and a TD50 (rat, strain Wistar, both sexes, by gavage, site: forestomach, lesion: squamous-cell carcinoma, dosed 51 weeks, study length 58 weeks) of 1.48 mg/kg/day. It also gave a TD50 (rat, strain Wistar, both sexes, by gavage, site: liver, lesion: several types, types named in the paper, dosed 51 weeks, study length 58 weeks) of 11.3 mg/kg/day.
With CC(C)(C)c1cc(C(C)(C)C)c(O)c(C(C)(C)C)c1 the carcinogen call (rat, strain Wistar, females, in feed, site: liver, lesion: one or several types, types not named, dosed 52 weeks, study length 52 weeks) was “negative (inactive)”, the carcinogen call (rat, strain Wistar, females, in feed, site: liver, lesion: one or several types, types not named, dosed 78 weeks, study length 78 weeks) was “negative (inactive)” and the carcinogen call (rat, strain Wistar, females, in feed, site: liver, lesion: one or several types, types not named, dosed 104 weeks, study length 104 weeks) was “negative (inactive)”. The carcinogen call (rat, strain Wistar, males, in feed, site: liver, lesion: one or several types, types not named, dosed 52 weeks, study length 52 weeks) was “negative (inactive)”, the carcinogen call (rat, strain Wistar, males, in feed, site: liver, lesion: one or several types, types not named, dosed 78 weeks, study length 78 weeks) was “negative (inactive)” and the carcinogen call (rat, strain Wistar, males, in feed, site: liver, lesion: one or several types, types not named, dosed 104 weeks, study length 104 weeks) was “negative (inactive)”.
Cc1cc(Cl)ccc1N showed a TD50 (mouse, strain B6C3F1, females, in feed, site: all sites, lesion: hemangioma + hemangiosarcoma, dosed 95 weeks, study length 99 weeks) of 40 mg/kg/day, a TD50 (mouse, strain B6C3F1, females, in feed, site: all sites, lesion: hemangiosarcoma, dosed 95 weeks, study length 99 weeks) of 42.3 mg/kg/day and a TD50 (mouse, strain B6C3F1, females, in feed, site: any site (literature study), lesion: several types, types named in the paper, dosed 95 weeks, study length 99 weeks) of 38.8 mg/kg/day. For the same compound, the TD50 (mouse, strain B6C3F1, females, in feed, site: liver, lesion: hepatocellular adenoma + hepatocellular carcinoma + neoplastic nodule, dosed 95 weeks, study length 99 weeks) was 754 mg/kg/day, the TD50 (mouse, strain B6C3F1, females, in feed, site: lung, lesion: alveolar/bronchiolar adenoma + alveolar/bronchiolar carcinoma, dosed 95 weeks, study length 99 weeks) was 798 mg/kg/day and the TD50 (mouse, strain B6C3F1, males, in feed, site: all sites, lesion: hemangioma + hemangiosarcoma, dosed 99 weeks, study length 99 weeks) was 743 mg/kg/day. It also gave a TD50 (mouse, strain B6C3F1, males, in feed, site: all sites, lesion: hemangiosarcoma, dosed 99 weeks, study length 99 weeks) of 911 mg/kg/day, a TD50 (mouse, strain B6C3F1, males, in feed, site: any site (literature study), lesion: several types, types named in the paper, dosed 99 weeks, study length 99 weeks) of 537 mg/kg/day and a TD50 (mouse, strain B6C3F1, males, in feed, site: liver, lesion: hepatocellular adenoma + hepatocellular carcinoma + neoplastic nodule, dosed 99 weeks, study length 99 weeks) of 3260 mg/kg/day. For the same compound, the TD50 (mouse, strain CD-1 HaM/ICR, females, in feed, site: all sites, lesion: all vascular tumors, dosed 51 weeks, study length 60 weeks) was 15.7 mg/kg/day and 18.4 mg/kg/day, the TD50 (mouse, strain CD-1 HaM/ICR, females, in feed, site: any site (literature study), lesion: several types, types named in the paper, dosed 51 weeks, study length 60 weeks) was 15.6 mg/kg/day and the TD50 (mouse, strain CD-1 HaM/ICR, females, in feed, site: liver, lesion: several types, types named in the paper, dosed 51 weeks, study length 60 weeks) was 139 mg/kg/day (inactive). The TD50 (mouse, strain CD-1 HaM/ICR, females, in feed, site: lung, lesion: several types, types named in the paper, dosed 51 weeks, study length 60 weeks) was 153 mg/kg/day (inactive), the TD50 (mouse, strain CD-1 HaM/ICR, males, in feed, site: all sites, lesion: all vascular tumors, dosed 55 weeks, study length 60 weeks) was 15.4 mg/kg/day and the TD50 (mouse, strain CD-1 HaM/ICR, males, in feed, site: any site (literature study), lesion: several types, types named in the paper, dosed 55 weeks, study length 60 weeks) was 7.72 mg/kg/day. The TD50 (mouse, strain CD-1 HaM/ICR, males, in feed, site: liver, lesion: several types, types named in the paper, dosed 55 weeks, study length 60 weeks) was 95.7 mg/kg/day (inactive), the TD50 (mouse, strain CD-1 HaM/ICR, males, in feed, site: lung, lesion: several types, types named in the paper, dosed 55 weeks, study length 60 weeks) was 8.85 mg/kg/day (inactive) and the TD50 (rat, strain Charles River CD (Sprague-Dawley), males, in feed, site: any site (literature study), lesion: several types, types named in the paper, dosed 77 weeks, study length 98 weeks) was 24.9 mg/kg/day (inactive). The TD50 (rat, strain Charles River CD (Sprague-Dawley), males, in feed, site: liver, lesion: several types, types named in the paper, dosed 77 weeks, study length 98 weeks) was 123 mg/kg/day (inactive), the carcinogen call (rat, strain Fischer 344, females, in feed, site: any site (literature study), lesion: several types, types named in the paper, dosed 107 weeks, study length 107 weeks) was “negative (inactive)” and the TD50 (rat, strain Fischer 344, males, in feed, site: liver, lesion: hepatocellular adenoma + hepatocellular carcinoma + neoplastic nodule, dosed 107 weeks, study length 107 weeks) was 6180 mg/kg/day. The TD50 (rat, strain Fischer 344, males, in feed, site: pituitary gland, lesion: chromophobe adenoma, dosed 107 weeks, study length 107 weeks) was 576 mg/kg/day (inactive).
